From ChEMBL document CHEMBL1201862, “PubChem BioAssay data set” (2004)
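Compound exposure: 48 hours, 5 concentrations, 96-well plates. GI50 marks 50% less growth.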 Calls of active or inactive are those of the source. Cut-off read from the data, not from the text of the source: active = GI50 up to about 1.1 µM and inactive = higher.

Tests used:
Assay in all cases: growth of human tumour cells (NCI), 48 h
ACHN = tested on: ACHN
PC-3 = tested on: PC-3
IGROV-1 = tested on: IGROV-1
MDA-N = tested on: MDA-N
CCRF-CEM = tested on: CCRF-CEM
SNB-19 = tested on: SNB-19
COLO 205 = tested on: COLO 205
NCI-H460 = tested on: NCI-H460
CAKI-1 = tested on: CAKI-1
MDA-MB-231 = tested on: MDA-MB-231
HCT-15 = tested on: HCT-15
SF-539 = tested on: SF-539
SF-268 = tested on: SF-268
SN12C = tested on: SN12C
U-251 = tested on: U-251
TK-10 = tested on: TK-10
K562 = tested on: K562
OVCAR-3 = tested on: OVCAR-3
EKVX = tested on: EKVX
NCI/ADR-RES = tested on: NCI/ADR-RES
OVCAR-8 = tested on: OVCAR-8
A498 = tested on: A498
RXF 393 = tested on: RXF 393
HOP-62 = tested on: HOP-62
RPMI-8226 = tested on: RPMI-8226
SK-OV-3 = tested on: SK-OV-3
Hs-578T = tested on: Hs-578T
SNB-75 = tested on: SNB-75
SK-MEL-28 = tested on: SK-MEL-28
BT-549 = tested on: BT-549
LOX IMVI = tested on: LOX IMVI
SF-295 = tested on: SF-295
MCF7 = tested on: MCF7
OVCAR-5 = tested on: OVCAR-5
MDA-MB-435 = tested on: MDA-MB-435
SK-MEL-2 = tested on: SK-MEL-2
UACC-257 = tested on: UACC-257
T47D = tested on: T47D
A549 = tested on: A549
M14 = tested on: M14
HOP-92 = tested on: HOP-92
786-0 = tested on: 786-0
HCT-116 = tested on: HCT-116
SK-MEL-5 = tested on: SK-MEL-5
NCI-H23 = tested on: NCI-H23
UACC-62 = tested on: UACC-62
NCI-H226 = tested on: NCI-H226
KM12 = tested on: KM12
SW-620 = tested on: SW-620
DU-145 = tested on: DU-145
HL-60 = tested on: HL-60
HT-29 = tested on: HT-29
MOLT-4 = tested on: MOLT-4
Malme-3M = tested on: Malme-3M
SR = tested on: SR
OVCAR-4 = tested on: OVCAR-4
NCI-H522 = tested on: NCI-H522
HCC 2998 = tested on: HCC 2998
UO-31 = tested on: UO-31

For `CC(=O)OC1(C)N=NC2(CCCCC2)O1` (stereo not given), the GI50 (ACHN) was > 100 µM (inactive), the GI50 (PC-3) was > 100 µM (inactive) and the GI50 (IGROV-1) was > 100 µM (inactive). The GI50 (MDA-N) was > 100 µM (inactive), the GI50 (CCRF-CEM) was > 100 µM (inactive) and the GI50 (SNB-19) was > 100 µM (inactive). The GI50 (COLO 205) was > 100 µM (inactive), the GI50 (NCI-H460) was > 100 µM (inactive) and the GI50 (CAKI-1) was > 100 µM (inactive). For the same compound, the GI50 (MDA-MB-231) was > 100 µM (inactive), the GI50 (HCT-15) was greater than 100 µM and the GI50 (SF-539) was > 100 µM (inactive). For the same compound, the GI50 (SF-268) was > 100 µM (inactive), the GI50 (SN12C) was > 100 µM (inactive) and the GI50 (U-251) was > 100 µM (inactive). For the same compound, the GI50 (TK-10) was > 100 µM (inactive), the GI50 (K562) was > 100 µM (inactive) and the GI50 (OVCAR-3) was > 100 µM (inactive). For the same compound, the GI50 (EKVX) was > 100 µM (inactive), the GI50 (NCI/ADR-RES) was > 100 µM (inactive) and the GI50 (OVCAR-8) was > 100 µM (inactive). The GI50 (A498) was > 100 µM (inactive), the GI50 (RXF 393) was > 100 µM (inactive) and the GI50 (HOP-62) was > 100 µM (inactive). The GI50 (RPMI-8226) was > 100 µM (inactive), the GI50 (SK-OV-3) was > 100 µM (inactive) and the GI50 (Hs-578T) was > 100 µM (inactive). For the same compound, the GI50 (SNB-75) was > 100 µM (inactive), the GI50 (SK-MEL-28) was > 100 µM (inactive) and the GI50 (BT-549) was > 100 µM (inactive). The GI50 (LOX IMVI) was > 100 µM (inactive), the GI50 (SF-295) was > 100 µM (inactive) and the GI50 (MCF7) was > 100 µM (inactive). The GI50 (OVCAR-5) was > 100 µM (inactive), the GI50 (MDA-MB-435) was > 100 µM (inactive) and the GI50 (SK-MEL-2) was > 100 µM (inactive). For the same compound, the GI50 (UACC-257) was > 100 µM (inactive), the GI50 (T47D) was > 100 µM (inactive) and the GI50 (A549) was > 100 µM (inactive). The GI50 (M14) was > 100 µM (inactive), the GI50 (HOP-92) was > 100 µM (inactive) and the GI50 (786-0) was > 100 µM (inactive). The GI50 (HCT-116) was > 100 µM (inactive), the GI50 (SK-MEL-5) was > 100 µM (inactive) and the GI50 (NCI-H23) was > 100 µM (inactive). For the same compound, the GI50 (UACC-62) was > 100 µM (inactive), the GI50 (NCI-H226) was > 100 µM (inactive) and the GI50 (KM12) was > 100 µM (inactive). For the same compound, the GI50 (SW-620) was > 100 µM (inactive), the GI50 (DU-145) was > 100 µM (inactive) and the GI50 (HL-60) was 18.9 µM (inactive). For the same compound, the GI50 (HT-29) was > 100 µM (inactive), the GI50 (MOLT-4) was > 100 µM (inactive) and the GI50 (Malme-3M) was > 100 µM (inactive). The GI50 (SR) was > 100 µM (inactive), the GI50 (OVCAR-4) was > 100 µM (inactive) and the GI50 (NCI-H522) was > 100 µM (inactive).

`c1cnn(C23C4C5C6C4C2C6C53)c1` (stereo not given) was tested, and the GI50 (ACHN) was > 100 µM (inactive), the GI50 (PC-3) was > 100 µM (inactive) and the GI50 (IGROV-1) was > 100 µM (inactive). For the same compound, the GI50 (MDA-N) was > 100 µM (inactive), the GI50 (CCRF-CEM) was > 100 µM (inactive) and the GI50 (SNB-19) was > 100 µM (inactive). The GI50 (COLO 205) was > 100 µM (inactive), the GI50 (NCI-H460) was > 100 µM (inactive) and the GI50 (MDA-MB-231) was > 100 µM (inactive). For the same compound, the GI50 (HCT-15) was greater than 100 µM, the GI50 (SF-539) was > 100 µM (inactive) and the GI50 (SF-268) was > 100 µM (inactive). The GI50 (SN12C) was > 100 µM (inactive), the GI50 (U-251) was > 100 µM (inactive) and the GI50 (TK-10) was > 100 µM (inactive). For the same compound, the GI50 (K562) was > 100 µM (inactive), the GI50 (EKVX) was > 100 µM (inactive) and the GI50 (NCI/ADR-RES) was > 100 µM (inactive). For the same compound, the GI50 (OVCAR-8) was > 100 µM (inactive), the GI50 (A498) was > 100 µM (inactive) and the GI50 (HOP-62) was > 100 µM (inactive). The GI50 (RPMI-8226) was > 100 µM (inactive), the GI50 (SK-OV-3) was > 100 µM (inactive) and the GI50 (Hs-578T) was > 100 µM (inactive). The GI50 (SNB-75) was > 100 µM (inactive), the GI50 (SK-MEL-28) was > 100 µM (inactive) and the GI50 (BT-549) was 71.6 µM (inactive). For the same compound, the GI50 (LOX IMVI) was > 100 µM (inactive), the GI50 (SF-295) was > 100 µM (inactive) and the GI50 (MCF7) was > 100 µM (inactive). The GI50 (OVCAR-5) was > 100 µM (inactive), the GI50 (HCC 2998) was > 100 µM (inactive) and the GI50 (MDA-MB-435) was > 100 µM (inactive). The GI50 (SK-MEL-2) was > 100 µM (inactive), the GI50 (UACC-257) was > 100 µM (inactive) and the GI50 (T47D) was > 100 µM (inactive). The GI50 (A549) was > 100 µM (inactive), the GI50 (786-0) was > 100 µM (inactive) and the GI50 (HCT-116) was > 100 µM (inactive). For the same compound, the GI50 (SK-MEL-5) was > 100 µM (inactive), the GI50 (NCI-H23) was > 100 µM (inactive) and the GI50 (NCI-H226) was 60.4 µM (inactive). The GI50 (KM12) was > 100 µM (inactive), the GI50 (SW-620) was > 100 µM (inactive) and the GI50 (DU-145) was > 100 µM (inactive). For the same compound, the GI50 (HL-60) was > 100 µM (inactive), the GI50 (HT-29) was > 100 µM (inactive) and the GI50 (MOLT-4) was > 100 µM (inactive). The GI50 (SR) was > 100 µM (inactive) and the GI50 (NCI-H522) was > 100 µM (inactive).

With `O=[N+]([O-])c1cccc(/C=N/NC2=CS(=O)(=O)C=C2)c1` the GI50 (ACHN) was > 100 µM (inactive), the GI50 (PC-3) was > 100 µM (inactive) and the GI50 (IGROV-1) was > 100 µM (inactive). The GI50 (MDA-N) was > 100 µM (inactive), the GI50 (CCRF-CEM) was > 100 µM (inactive) and the GI50 (SNB-19) was > 100 µM (inactive). For the same compound, the GI50 (COLO 205) was > 100 µM (inactive), the GI50 (NCI-H460) was > 100 µM (inactive) and the GI50 (CAKI-1) was > 100 µM (inactive). For the same compound, the GI50 (MDA-MB-231) was > 100 µM (inactive), the GI50 (HCT-15) was greater than 100 µM and the GI50 (SF-539) was > 100 µM (inactive). The GI50 (SF-268) was > 100 µM (inactive), the GI50 (SN12C) was > 100 µM (inactive) and the GI50 (U-251) was > 100 µM (inactive). The GI50 (TK-10) was > 100 µM (inactive), the GI50 (K562) was > 100 µM (inactive) and the GI50 (OVCAR-3) was > 100 µM (inactive). The GI50 (EKVX) was > 100 µM (inactive), the GI50 (NCI/ADR-RES) was > 100 µM (inactive) and the GI50 (OVCAR-8) was > 100 µM (inactive). For the same compound, the GI50 (A498) was > 100 µM (inactive), the GI50 (RXF 393) was > 100 µM (inactive) and the GI50 (HOP-62) was > 100 µM (inactive). For the same compound, the GI50 (RPMI-8226) was > 100 µM (inactive), the GI50 (SK-OV-3) was > 100 µM (inactive) and the GI50 (Hs-578T) was > 100 µM (inactive). For the same compound, the GI50 (SNB-75) was 91 µM (inactive), the GI50 (SK-MEL-28) was > 100 µM (inactive) and the GI50 (BT-549) was 78.7 µM (inactive). The GI50 (LOX IMVI) was > 100 µM (inactive), the GI50 (SF-295) was > 100 µM (inactive) and the GI50 (MCF7) was > 100 µM (inactive). For the same compound, the GI50 (OVCAR-5) was > 100 µM (inactive), the GI50 (MDA-MB-435) was > 100 µM (inactive) and the GI50 (SK-MEL-2) was > 100 µM (inactive). The GI50 (UACC-257) was > 100 µM (inactive), the GI50 (T47D) was > 100 µM (inactive) and the GI50 (A549) was > 100 µM (inactive). For the same compound, the GI50 (M14) was > 100 µM (inactive), the GI50 (HOP-92) was > 100 µM (inactive) and the GI50 (786-0) was > 100 µM (inactive). For the same compound, the GI50 (UO-31) was > 100 µM (inactive), the GI50 (HCT-116) was > 100 µM (inactive) and the GI50 (SK-MEL-5) was > 100 µM (inactive). The GI50 (NCI-H23) was > 100 µM (inactive), the GI50 (UACC-62) was > 100 µM (inactive) and the GI50 (NCI-H226) was > 100 µM (inactive). The GI50 (KM12) was > 100 µM (inactive), the GI50 (SW-620) was > 100 µM (inactive) and the GI50 (DU-145) was > 100 µM (inactive). For the same compound, the GI50 (HL-60) was 42.6 µM (inactive), the GI50 (HT-29) was > 100 µM (inactive) and the GI50 (MOLT-4) was > 100 µM (inactive). The GI50 (Malme-3M) was > 100 µM (inactive), the GI50 (SR) was > 100 µM (inactive) and the GI50 (OVCAR-4) was > 100 µM (inactive). The GI50 (NCI-H522) was > 100 µM (inactive).
